The target of assay [1] is T1, Adrenergic receptor alpha-2 (Rattus norvegicus, UniProt P22086+P19328+P22909).
T1 sequence (P22086 whole entry): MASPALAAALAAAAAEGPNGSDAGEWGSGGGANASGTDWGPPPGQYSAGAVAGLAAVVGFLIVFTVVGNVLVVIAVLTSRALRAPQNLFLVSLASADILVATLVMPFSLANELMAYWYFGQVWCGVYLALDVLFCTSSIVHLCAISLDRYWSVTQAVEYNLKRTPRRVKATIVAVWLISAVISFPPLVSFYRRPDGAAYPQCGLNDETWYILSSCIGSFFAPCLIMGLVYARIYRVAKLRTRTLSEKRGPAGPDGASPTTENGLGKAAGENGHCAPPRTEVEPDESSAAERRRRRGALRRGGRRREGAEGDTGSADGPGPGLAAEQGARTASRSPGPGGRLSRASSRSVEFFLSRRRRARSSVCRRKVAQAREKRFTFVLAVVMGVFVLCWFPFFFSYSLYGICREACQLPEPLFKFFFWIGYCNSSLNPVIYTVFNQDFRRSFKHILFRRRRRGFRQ
T1 sequence (P19328 whole entry): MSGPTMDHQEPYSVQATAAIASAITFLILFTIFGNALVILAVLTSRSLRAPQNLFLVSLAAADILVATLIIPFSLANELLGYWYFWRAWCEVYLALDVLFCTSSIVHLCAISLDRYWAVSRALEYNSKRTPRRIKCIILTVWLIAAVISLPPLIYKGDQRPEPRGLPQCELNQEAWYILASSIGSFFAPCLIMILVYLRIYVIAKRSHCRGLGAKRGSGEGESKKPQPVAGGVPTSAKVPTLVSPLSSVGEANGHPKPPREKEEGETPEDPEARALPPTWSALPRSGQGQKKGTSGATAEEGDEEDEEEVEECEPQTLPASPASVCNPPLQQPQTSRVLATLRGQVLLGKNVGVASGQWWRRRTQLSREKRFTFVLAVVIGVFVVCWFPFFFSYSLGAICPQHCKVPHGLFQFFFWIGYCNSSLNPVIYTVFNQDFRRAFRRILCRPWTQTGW
T1 sequence (P22909 whole entry): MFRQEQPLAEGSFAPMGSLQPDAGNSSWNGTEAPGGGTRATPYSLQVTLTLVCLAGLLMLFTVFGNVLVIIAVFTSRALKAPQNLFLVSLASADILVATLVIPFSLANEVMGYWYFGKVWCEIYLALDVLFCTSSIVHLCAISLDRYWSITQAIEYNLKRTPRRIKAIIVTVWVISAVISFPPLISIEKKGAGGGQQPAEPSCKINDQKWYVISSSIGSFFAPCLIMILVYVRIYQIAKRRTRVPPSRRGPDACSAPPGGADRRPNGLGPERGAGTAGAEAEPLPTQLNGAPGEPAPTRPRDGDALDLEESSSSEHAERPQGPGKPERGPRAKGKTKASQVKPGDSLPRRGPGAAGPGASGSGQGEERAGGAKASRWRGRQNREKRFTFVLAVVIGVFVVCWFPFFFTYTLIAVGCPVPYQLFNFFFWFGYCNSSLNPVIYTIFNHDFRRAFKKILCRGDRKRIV
Nature of the assay: binding affinity towards alpha-2 adrenergic receptor, using [3H]- atipamezole as radioligand from rat frontal cortex membranes. The assay is classed as tissue-based.

The target in assay [2] is T2, D(2) dopamine receptor (Rattus norvegicus, UniProt P61169). The assay can be described thus: Compound was evaluated for binding affinity towards dopamine receptor D2 in striatal membranes, using [3H]- spiperone as radioligand in the presence of sodium chloride. Type of assay: cell membranes.
T2 sequence (P61169 whole entry): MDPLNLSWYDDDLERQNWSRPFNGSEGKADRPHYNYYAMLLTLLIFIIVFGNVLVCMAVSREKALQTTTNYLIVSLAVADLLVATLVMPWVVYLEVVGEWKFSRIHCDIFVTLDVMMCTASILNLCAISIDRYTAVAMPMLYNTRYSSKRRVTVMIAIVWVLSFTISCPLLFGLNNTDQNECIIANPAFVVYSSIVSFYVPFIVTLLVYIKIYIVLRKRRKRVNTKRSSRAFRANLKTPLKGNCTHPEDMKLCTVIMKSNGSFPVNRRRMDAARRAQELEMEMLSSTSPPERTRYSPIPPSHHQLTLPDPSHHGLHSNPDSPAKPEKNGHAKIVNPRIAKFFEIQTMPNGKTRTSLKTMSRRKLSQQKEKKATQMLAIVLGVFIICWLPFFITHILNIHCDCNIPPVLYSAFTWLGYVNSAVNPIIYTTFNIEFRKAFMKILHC
Assay [3] has as its target T2, D(2) dopamine receptor. Nature of the assay: Displacement of [3H]- spiperone from dopamine receptor D2 of striatal membranes without sodium chloride. A general note: Loss of bound radioactivity is the signal in a displacement assay; it reports binding, not function.

By Ki is commonly meant the dissociation constant of the complex between target and ligand, obtained from inhibition or displacement. For the compound `CCN1CCC[C@H]1CNC(=O)c1c(O)c(CCCF)cc(OC)c1OC`, the results for the Ki (in assay [1]; at D(2) dopamine receptor [2]; on D(2) dopamine receptor [3]) were 11.1 nM, 0.25 nM and 0.8 nM, respectively.
For the compound `CCN1CCC[C@H]1CNC(=O)c1cc(CCCF)cc(OC)c1OC`, the Ki on D(2) dopamine receptor [2] amounted to 1.17 nM; at D(2) dopamine receptor [3], 4.4 nM.
On to `CCN1CCC[C@H]1CNC(=O)c1c(O)c(CCF)cc(OC)c1OC`, for which the Ki was found to be 9.5 nM in assay [1], 0.24 nM at D(2) dopamine receptor [2] and 0.77 nM at D(2) dopamine receptor [3].
On D(2) dopamine receptor [3], `CCCc1cc(OC)c(OC)c(C(=O)NC[C@@H]2CCCN2CC)c1` displayed a Ki of 6.98 nM.
For the compound `CCN1CCC[C@H]1CNC(=O)c1cc(Br)cc(OC)c1OC`, the inhibition constant (Ki) was determined as 0.2 nM on D(2) dopamine receptor [2] and 0.76 nM at D(2) dopamine receptor [3].
As for `CCN1CCC[C@H]1CNC(=O)c1cccc(OC)c1OC`, the Ki on D(2) dopamine receptor [3] was 66 nM.
The same measure, in the same setting: next, `CCN1CCC[C@@H]1CNC(=O)c1c(O)c(CCCF)cc(OC)c1OC`: above 10000 nM.
For the compound `CCN1CCC[C@H]1CNC(=O)c1cc(CCF)cc(OC)c1OC`, the Ki at D(2) dopamine receptor [2] was determined as 1.41 nM; at D(2) dopamine receptor [3], 5.27 nM.
Regarding `CCCc1cc(OC)c(OC)c(C(=O)NC[C@@H]2CCCN2CC)c1O`, the affinity on D(2) dopamine receptor [3], expressed as Ki, was 1.28 nM.
Regarding `CCN1CCC[C@H]1CNC(=O)c1cc(I)cc(OC)c1OC` [EPIDEPRIDE], the inhibition constant Ki in assay [1] came out at 5 nM; on D(2) dopamine receptor [2], 0.27 nM.
The compound `CCN1CCC[C@@H]1CNC(=O)c1cc(CCF)cc(OC)c1OC` displayed a Ki on D(2) dopamine receptor [3] above 10000 nM.
